Relative viability data for nine cell lines are collected here from the supplement of paper PMC10307832.

Holding throughout (assay): relative viability (nuclei count vs DMSO), 5 days (fraction); higher = more cells survive
Compound in experiment [1]: C1CN(CCC1C(C2=CC3=C(C=C2)OCO3)(C4=CC5=C(C=C4)OCO5)O)C(=O)OC6=CC=C(C=C6)[N+](=O)[O-] [JZL-184]
The gist of the method: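 Only plates meeting two conditions passed: control CV below 25% and at least one doubling. Lung cancer cell lines, kept overnight at 37 °C in 1536-well plates, were pinned with five library-drug doses (not always all listed) √10 apart on vehicle-anchored plates and grown 5 days without medium change. A one-step fix, permeabilisation and Hoechst stain preceded 4× imaging and MetaXpress nuclear counting. Viability equals treated-well nuclei divided by vehicle-well nuclei, as the median over plates.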

Compound in experiment [2]: C1CN(CCC1C(C2=CC3=C(C=C2)OCO3)(C4=CC5=C(C=C4)OCO5)O)C(=O)OC6=CC=C(C=C6)[N+](=O)[O-] [JZL-184] + CC(=O)Nc1cccc(-n2c(=O)n(C3CC3)c(=O)c3c(Nc4ccc(I)cc4F)n(C)c(=O)c(C)c32)c1 [Trametinib] (partner 0.02 µM)
The gist of the method:
(§1)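 Lung cancer cell lines in 1536-well plates were dosed by pin tool the day after seeding, either with one drug alone or with a fixed anchor-drug dose plus five library-drug doses (not always all listed) in √10 steps. After 5 days, cells were fixed and their nuclei stained in one step (final 0.05% Triton X-100, 1% formaldehyde, 1 ug/ml Hoechst), then counted on 4× images. Relative viability is the nuclei count in treated wells divided by that in vehicle wells. Values are medians of duplicate plates.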

Compound in experiment [3]: C1CN(CCC1C(C2=CC3=C(C=C2)OCO3)(C4=CC5=C(C=C4)OCO5)O)C(=O)OC6=CC=C(C=C6)[N+](=O)[O-] [JZL-184] + CS(=O)(=O)CCNCc1ccc(-c2ccc3ncnc(Nc4ccc(OCc5cccc(F)c5)c(Cl)c4)c3c2)o1 [Lapatinib] (partner 2 µM)
The gist of the method: as §1

Compound in experiment [4]: C1CN(CCC1C(C2=CC3=C(C=C2)OCO3)(C4=CC5=C(C=C4)OCO5)O)C(=O)OC6=CC=C(C=C6)[N+](=O)[O-] [JZL-184] + O=C(CCCCCCC(=O)Nc1ccccc1)NO [Vorinostat] (partner 1 µM)
The gist of the method:
as §1

Compound in experiment [5]: C1CN(CCC1C(C2=CC3=C(C=C2)OCO3)(C4=CC5=C(C=C4)OCO5)O)C(=O)OC6=CC=C(C=C6)[N+](=O)[O-] [JZL-184] + NC(=O)Nc1cc(-c2cccc(F)c2)sc1C(=O)N[C@H]1CCCNC1 [AZD7762] (partner 0.2 µM)
The gist of the method: as §1

Turning to NCI-H520, the relative viability came to 0.793 in experiment [1] (0.04 µM); 0.924 in experiment [1] (0.4 µM); 1.07 in experiment [1] (1.265 µM); 0.93 in experiment [1] (4 µM); 0.729 in experiment [2] (first compound 0.04 µM); 0.63 in experiment [2] (first compound 0.4 µM). Besides, the relative viability came out at 0.686 in experiment [2] (first compound 1.265 µM); 0.651 in experiment [2] (first compound 4 µM); 0.79 in experiment [3] (first compound 0.04 µM); 0.76 in experiment [3] (first compound 0.4 µM); 0.856 in experiment [3] (first compound 1.265 µM); 0.631 in experiment [3] (first compound 4 µM). In addition, the relative viability in experiment [4] (first compound 0.04 µM) was determined as 0.884; in experiment [4] (first compound 0.4 µM), 0.683; in experiment [4] (first compound 1.265 µM), 0.798; in experiment [4] (first compound 4 µM), 0.678.

Take SW 900: the relative viability in experiment [1] (0.04 µM) stood at 1.08; in experiment [1] (0.4 µM) it was 0.698; in experiment [1] (1.265 µM), 0.958; in experiment [1] (4 µM) it was 0.882; in experiment [2] (first compound 0.04 µM), 0.74; in experiment [2] (first compound 0.4 µM) it was 0.783. Besides, the relative viability was 0.864 in experiment [2] (first compound 1.265 µM); 0.693 in experiment [2] (first compound 4 µM); 0.573 in experiment [5] (first compound 0.04 µM); 0.756 in experiment [5] (first compound 0.4 µM); 0.627 in experiment [5] (first compound 1.265 µM); 0.594 in experiment [5] (first compound 4 µM). For the same cell line, the relative viability in experiment [4] (first compound 0.04 µM) worked out at 0.496; in experiment [4] (first compound 0.4 µM), 0.4; in experiment [4] (first compound 1.265 µM), 0.587; in experiment [4] (first compound 4 µM) it was 0.527.

Consider NCI-H522, for which the relative viability came to 1.24 in experiment [1] (0.04 µM); 0.896 in experiment [1] (0.4 µM); 1.05 in experiment [1] (1.265 µM); 0.901 in experiment [1] (4 µM); 0.856 in experiment [2] (first compound 0.04 µM); 0.758 in experiment [2] (first compound 0.4 µM). In addition, the relative viability was found to be 0.791 in experiment [2] (first compound 1.265 µM); 0.802 in experiment [2] (first compound 4 µM); 0.898 in experiment [5] (first compound 0.04 µM); 0.706 in experiment [5] (first compound 0.4 µM); 0.885 in experiment [5] (first compound 1.265 µM); 0.781 in experiment [5] (first compound 4 µM). Moreover, the relative viability in experiment [4] (first compound 0.04 µM) was 0.937; in experiment [4] (first compound 0.4 µM) it was 0.858; in experiment [4] (first compound 1.265 µM) it was 0.952; in experiment [4] (first compound 4 µM), 0.947.

NCI-H2023: the relative viability amounted to 1.15 in experiment [1] (0.04 µM); 0.921 in experiment [1] (0.4 µM); 1.01 in experiment [1] (1.265 µM); 0.944 in experiment [1] (4 µM); 0.717 in experiment [2] (first compound 0.04 µM); 0.612 in experiment [2] (first compound 0.4 µM). In addition, the relative viability in experiment [2] (first compound 1.265 µM) was 0.568; in experiment [2] (first compound 4 µM) it was 0.54; in experiment [3] (first compound 0.04 µM), 1.14; in experiment [3] (first compound 0.4 µM), 0.853; in experiment [3] (first compound 1.265 µM), 0.964; in experiment [3] (first compound 4 µM), 0.802. Moreover, the relative viability was found to be 0.766 in experiment [4] (first compound 0.04 µM), 0.587 in experiment [4] (first compound 0.4 µM), 0.588 in experiment [4] (first compound 1.265 µM) and 0.44 in experiment [4] (first compound 4 µM).

Consider NCI-H441, for which the relative viability in experiment [1] (0.04 µM) worked out at 1.14; in experiment [1] (0.4 µM), 0.814; in experiment [1] (1.265 µM), 1.02; in experiment [1] (4 µM), 0.998; in experiment [2] (first compound 0.04 µM), 0.473; in experiment [2] (first compound 0.4 µM), 0.436. The relative viability in experiment [2] (first compound 1.265 µM) worked out at 0.49; in experiment [2] (first compound 4 µM) it was 0.487; in experiment [5] (first compound 0.04 µM), 1.44; in experiment [5] (first compound 0.4 µM), 1.23; in experiment [5] (first compound 1.265 µM), 1; in experiment [5] (first compound 4 µM) it was 1.02. Further, the relative viability amounted to 0.793 in experiment [4] (first compound 0.04 µM), 1.02 in experiment [4] (first compound 0.4 µM), 0.784 in experiment [4] (first compound 1.265 µM) and 0.697 in experiment [4] (first compound 4 µM).

For NCI-H2228, the relative viability in experiment [1] (0.04 µM) was found to be 1.16; in experiment [1] (0.4 µM) it was 0.945; in experiment [1] (1.265 µM), 1.04; in experiment [1] (4 µM) it was 0.918; in experiment [2] (first compound 0.04 µM), 0.465; in experiment [2] (first compound 0.4 µM) it was 0.472. In addition, the relative viability in experiment [2] (first compound 1.265 µM) amounted to 0.704; in experiment [2] (first compound 4 µM), 0.629; in experiment [3] (first compound 0.04 µM), 1.37; in experiment [3] (first compound 0.4 µM), 0.796; in experiment [3] (first compound 1.265 µM), 1.03; in experiment [3] (first compound 4 µM), 1.15. The relative viability amounted to 0.898 in experiment [4] (first compound 0.04 µM), 0.572 in experiment [4] (first compound 0.4 µM), 0.639 in experiment [4] (first compound 1.265 µM) and 0.703 in experiment [4] (first compound 4 µM).

Regarding NCI-H1792, the relative viability in experiment [1] (0.04 µM) is 1.03; in experiment [1] (0.4 µM), 0.836; in experiment [1] (1.265 µM), 0.883; in experiment [1] (4 µM), 1.18; in experiment [2] (first compound 0.04 µM), 0.347; in experiment [2] (first compound 0.4 µM), 0.406. Further, the relative viability in experiment [2] (first compound 1.265 µM) turned out to be 0.495; in experiment [2] (first compound 4 µM) it was 0.448; in experiment [3] (first compound 0.04 µM) it was 0.974; in experiment [3] (first compound 0.4 µM), 0.858; in experiment [3] (first compound 1.265 µM), 0.926; in experiment [3] (first compound 4 µM), 0.96. Also, the relative viability in experiment [5] (first compound 0.04 µM) stood at 0.747; in experiment [5] (first compound 0.4 µM) it was 0.548; in experiment [5] (first compound 1.265 µM), 0.713; in experiment [5] (first compound 4 µM) it was 0.858.

Take IA-LM: the relative viability in experiment [1] (0.04 µM) amounted to 1.31; in experiment [1] (0.4 µM), 0.879; in experiment [1] (1.265 µM) it was 1.03; in experiment [1] (4 µM) it was 1; in experiment [3] (first compound 0.04 µM), 1.09; in experiment [3] (first compound 0.4 µM), 0.555. Moreover, the relative viability in experiment [3] (first compound 1.265 µM) is 0.759; in experiment [3] (first compound 4 µM) it was 0.629; in experiment [4] (first compound 0.04 µM) it was 0.893; in experiment [4] (first compound 0.4 µM), 0.988; in experiment [4] (first compound 1.265 µM), 0.965; in experiment [4] (first compound 4 µM), 0.989.

With NCI-H1563, the relative viability in experiment [1] (0.04 µM) was found to be 0.943; in experiment [1] (0.4 µM), 1.05; in experiment [1] (1.265 µM), 1.02; in experiment [1] (4 µM), 0.934; in experiment [3] (first compound 0.04 µM) it was 0.951; in experiment [3] (first compound 0.4 µM), 0.923. The relative viability in experiment [3] (first compound 1.265 µM) was found to be 0.972; in experiment [3] (first compound 4 µM), 0.868.
